From patent US20090069300A1, “ISOQUINOLINYL AND ISOINDOLINYL DERIVATIVES AS HISTAMINE-3 ANTAGONISTS” (Wyeth, priority 2007, published 2009) come the findings set out here.

Where a name gives a salt, the structure may show the parent alone.

As to `O=C1c2ccc(-c3ccc(C(F)(F)F)cc3)cc2CCN1CCN1CCCC1` (as salt: hydrochloride) [Example 22, 2-(2-pyrrolidin-1-ylethyl)-6-[4-(trifluoromethyl)phenyl]-3,4-dihydroisoquinolin-1(2H)-one], the melting point is 243 to 244 °C.

In turn, `O=C1c2ccc(-c3ccccc3F)cc2CCN1CCN1CCCC1` (as salt: hydrochloride) [Example 12, 6-(2-fluorophenyl)-2-(2-pyrrolidin-1-ylethyl)-3,4-dihydroisoquinolin-1(2H)-one] registered a melting point of 211 to 213 °C.

In the case of `O=C(NCCF)c1ccc(-c2ccc3c(c2)CCN(CCN2CCCC2)C3=O)cc1` (as salt: hydrochloride) [Example 68, N-(2-fluoroethyl)-4-[1-oxo-2-(2-pyrrolidin-1-ylethyl)-1,2,3,4-tetrahydroisoquinolin-6-yl]benzamide], the melting point lay in the range of 215 to 216 °C.

Consider `O=C1c2ccc(-c3ccccc3)cc2CCN1CCN1CCCC1` (as salt: hydrochloride) [Example 16, 6-phenyl-2-(2-pyrrolidin-1-ylethyl)-3,4-dihydroisoquinolin-1(2H)-one], for which the melting point lay within 218 to 220 °C.

On to `C[C@@H]1CCCN1CCN1CCc2cc(C(=O)N3CCCCCC3)ccc2C1=O` (as salt: hydrochloride) [Example 144, 6-(azepan-1-ylcarbonyl)-2-{2-[(2R)-2-methylpyrrolidin-1-yl]ethyl}-3,4-dihydroisoquinolin-1(2H)-one], for which the melting point was 192 to 193 °C.

`C[C@@H]1CCCN1C(=O)c1ccc(-c2ccc3c(c2)CCN(CCN2CCCC2)C3=O)cc1` (as salt: hydrochloride) [Example 82, 6-(4-{[(2R)-2-methylpyrrolidin-1-yl]carbonyl}phenyl)-2-(2-pyrrolidin-1-ylethyl)-3,4-dihydroisoquinolin-1(2H)-one] gave a melting point of 170 to 171 °C.

Compound `c1ccc(-c2ccc3c(c2)CCN(CCN2CCCC2)C3)cc1` [Example 178] had a melting point of 268 to 270 °C.

`O=C1c2ccc(-c3cccc(C(F)(F)F)c3)cc2CCN1CCN1CCCC1` (as salt: hydrochloride) [Example 20, 2-(2-pyrrolidin-1-ylethyl)-6-[3-(trifluoromethyl)phenyl]-3,4-dihydroisoquinolin-1(2H)-one]: the melting point lay in the range of 138 to 139 °C.

`O=C(O)c1ccc(Oc2ccc3c(c2)CCN(CCN2CCCC2)C3=O)cc1` gave a melting point of 99 to 100 °C.

In the case of `CNC(=O)c1ccc(-c2ccc3c(c2)CCN(CCN2CCCC2)C3=O)cc1` (as salt: hydrochloride) [Example 59, N-methyl-4-[1-oxo-2-(2-pyrrolidin-1-ylethyl)-1,2,3,4-tetrahydroisoquinolin-6-yl]benzamide], the melting point lay within 235 to 236 °C.

As to `N#Cc1ccc2c(ccn2-c2ccc3c(c2)CCN(CCN2CCCC2)C3=O)c1` (as salt: hydrochloride) [Example 35, 1-[1-oxo-2-(2-pyrrolidin-1-ylethyl)-1,2,3,4-tetrahydroisoquinolin-6-yl]-1H-indole-5-carbonitrile Hydrochloride], the melting point was 215 to 217 °C.

On to `O=C(c1ccc(-c2ccc3c(c2)CCN(CCN2CCCC2)C3=O)cc1)N1CCC1` (as salt: hydrochloride) [Example 64, 6-[4-(azetidin-1-ylcarbonyl)phenyl]-2-(2-pyrrolidin-1-ylethyl)-3,4-dihydroisoquinolin-1(2H)-one], for which the melting point is 229 to 230 °C.

As to `CNC(=O)c1ccc(-c2ccc3c(c2)CCN(CCCN2CCCC2)C3=O)cc1` (as salt: hydrochloride) [Example 141, N-methyl-4-[1-oxo-2-(3-pyrrolidin-1-ylpropyl)-1,2,3,4-tetrahydroisoquinolin-6-yl]benzamide], the melting point lay in the range of 158 to 159 °C.

Compound `CCNC(=O)c1ccc(-c2ccc3c(c2)CCN(CCN2CCC[C@H]2C)C3=O)cc1` (as salt: hydrochloride) [Example 75, N-ethyl-4-(2-{2-[(2R)-2-methylpyrrolidin-1-yl]ethyl}-1-oxo-1,2,3,4-tetrahydroisoquinolin-6-yl)benzamide] yielded a melting point of 228 to 230 °C.

Take `N#Cc1ccc(Oc2ccc3c(c2)CCN(CCN2CCCC2)C3=O)nc1` (as salt: hydrochloride) [Example 47, 6-{[1-oxo-2-(2-pyrrolidin-1-ylethyl)-1,2,3,4-tetrahydroisoquinolin-6-yl]oxy}nicotinonitrile]: the melting point was in the range of 189 to 190 °C.

Take `O=C1c2ccc(N3CCCCC3)cc2CCN1CCN1CCCC1` (as salt: hydrochloride) [Example 162, 6-(piperidin-1-yl)-2-(2-(pyrrolidin-1-yl)ethyl)-3,4-dihydroisoquinolin-1(2H)-one]: the melting point lay within 245 to 246 °C.

Compound `C[C@@H]1CCCN1CCN1CCc2cc(-c3ccc4c(c3)CCNC4=O)ccc2C1=O` (as salt: hydrochloride) [Example 157, (R)-2-(2-(2-methylpyrrolidin-1-yl)ethyl)-3,3′,4,4′-tetrahydro-6,6′-biisoquinoline-1,1′(2H,2′H-dione hydrochloride] came in with a melting point of 272 to 273.5 °C.

Regarding `COc1ccc2c(c1)CCN(CCN1CCCC1)C2=O` (as salt: hydrochloride), the melting point fell in the range of 201 to 202 °C.

`CNC(=O)c1ccc(-c2ccc3c(c2)CCN(CCN2CCC[C@H]2C)C3=O)cc1` (as salt: hydrochloride) [Example 78, N-methyl-4-(2-{2-[(2R)-2-methylpyrrolidin-1-yl]ethyl}-1-oxo-1,2,3,4-tetrahydroisoquinolin-6-yl)benzamide] displayed a melting point of 258 to 260 °C.

The compound `C[C@@H]1CCCN1CCN1CCc2cc(N3CCCCCC3)ccc2C1=O` (as salt: hydrochloride) [Example 166, (R)-6-(azepan-1-yl)-2-(2-(2-methylpyrrolidin-1-yl)ethyl)-3,4-dihydroisoquinolin-1(2H)-one] registered a melting point of 182 to 184 °C.

Turning to `O=C(c1ccc2c(c1)CCN(CCN1CCCC1)C2=O)N1CCCCC1` (as salt: hydrochloride) [Example 155, 6-(piperidine-1-carbonyl)-2-(2-(pyrrolidin-1-yl)ethyl)-3,4-dihydroisoquinolin-1(2H)-one], the melting point is 144 to 147 °C.

Take `CCNC(=O)c1ccc(-c2ccc3c(c2)CCN(CCN2CCCC2)C3)cc1` (as salt: hydrochloride) [Example 182, N-ethyl-4-[2-(2-pyrrolidin-1-ylethyl)-1,2,3,4-tetrahydroisoquinolin-6-yl]benzamide]: the melting point fell in the range of 266 to 268 °C.

For the compound `CNC(=O)c1ccc(-c2ccc3c(c2)CCN(CCN2CCCC2)C3=O)c(F)c1` (as salt: hydrochloride) [Example 139, 3-fluoro-N-methyl-4-[1-oxo-2-(2-pyrrolidin-1-ylethyl)-1,2,3,4-tetrahydroisoquinolin-6-yl]benzaimde], the melting point was in the range of 188 to 190 °C.

Consider `O=C1c2ccc(N3CCCCC3)cc2CCN1CCN1CCCCCC1` (as salt: hydrochloride) [Example 164, 2-(2-(azepan-1-yl)ethyl)-6-(piperidin-1-yl)-3,4-dihydroisoquinolin-1(2H)-one], for which the melting point lay in the range of 229 to 231 °C.

Take `O=C1c2ccc(-c3ccc(F)cc3)cc2CCN1CCN1CCCCC1` (as salt: hydrochloride) [Example 43, 6-(4-fluorophenyl)-2-(2-piperidin-1-ylethyl)-3,4-dihydroiso-quinolin-1(2H)-one hydrochloride]: the melting point is 241 to 243 °C.

`O=C(c1ccc(-c2ccc3c(c2)CCN(CCN2CCCC2)C3)cc1)N1CCOCC1` (as salt: hydrochloride) [Example 186, 6-[4-(morpholin-4-ylcarbonyl)phenyl]-2-(2-pyrrolidin-1-ylethyl)-1,2,3,4-tetrahydroisoquinoline] yielded a melting point of 260 to 261 °C.

`O=C(NC1CCC1)c1ccc(-c2ccc3c(c2)CCN(CCN2CCCC2)C3=O)cc1` (as salt: hydrochloride) [Example 63, N-cyclobutyl-4-[1-oxo-2-(2-pyrrolidin-1-ylethyl)-1,2,3,4-tetrahydroisoquinolin-6-yl]benzamide]: the melting point was 255 to 258 °C.

Take `CCCNC(=O)c1ccc(-c2ccc3c(c2)CCN(CCN2CCCC2)C3=O)cc1` (as salt: hydrochloride): the melting point was 240 to 241 °C.

`C[C@H]1CCCN1C(=O)c1ccc(-c2ccc3c(c2)CCN(CCN2CCCC2)C3=O)cc1` (as salt: hydrochloride) [Example 81, 6-(4-{[(2S)-2-methylpyrrolidin-1-yl]carbonyl}phenyl)-2-(2-pyrrolidin-1-ylethyl)-3,4-dihydroisoquinolin-1(2H)-one]: the melting point is 171 to 172 °C.

With `O=C(c1ccc(-c2ccc3c(c2)CCN(CCN2CCCC2)C3=O)cc1)N1CCCC1` (as salt: hydrochloride) [Example 54, 6-[4-(pyrrolidin-1-ylcarbonyl)phenyl]-2-(2-pyrrolidin-1-ylethyl)-3,4-dihydroisoquinolin-1(2H)-one hydrochloride], the melting point is 245 to 248 °C.

Turning to `O=C1c2ccc(-n3cccn3)cc2CCN1CCN1CCCC1` (as salt: hydrochloride) [Example 37, 6-(1H-pyrazol-1-yl)-2-(2-(pyrrolidin-1-yl)ethyl)-3,4-dihydroisoquinolin-1(2H)-one hydrochloride], the melting point lay within 174 to 175 °C.

On to `C[C@@H]1CCCN1CCN1CCc2cc(N3CCCC3)ccc2C1=O` (as salt: hydrochloride) [Example 165, (R)-2-(2-(2-methylpyrrolidin-1-yl)ethyl)-6-(pyrrolidin-1-yl)-3,4-dihydroisoquinolin-1(2H)-one], for which the melting point fell in the range of 182 to 183 °C.

As for `CNC(=O)c1ccc(-c2ccc3c(c2)C(=O)N(CCN2CCC[C@H]2C)CC3)cc1` (as salt: hydrochloride) [Example 83, N-methyl-4-(2-{2-[(2R)-2-methylpyrrolidin-1-yl]ethyl}-1-oxo-1,2,3,4-tetrahydroiso-quinolin-7-yl)benzamide], the melting point was in the range of 262 to 263 °C.

For `CN(C)C(=O)c1ccc(-c2ccc3c(c2)CCN(CCN2CCCC2)C3=O)c(F)c1` (as salt: hydrochloride) [Example 137, 3-fluoro-N,N-dimethyl-4-[1-oxo-2-(2-pyrrolidin-1-ylethyl)-1,2,3,4-tetrahydroisoquinolin-6-yl]benzamide], the melting point lay in the range of 228 to 229 °C.
